Data as given in BindingDB's records for doi:10.1021/acs.jmedchem.9b00963 (Hong Kong Polytechnic University, 2019).

test: Inhibition of BCRP in human MCF7/MX100 cells assessed as reversal of topotecan resistance after 5 days by MTS/PMS assay

SMILES | EC50 [nM]
COC(=O)c1cccc(COc2c(-c3ccc(OCCOCCOCCn4cc(-c5ccc(-c6cn(CCOCCOCCOc7ccc(-c8oc9ccccc9c(=O)c8OCc8cccc(C(=O)OC)c8)cc7)nn6)cc5)nn4)cc3)oc3ccccc3c2=O)c1 | 14
O=c1cc(-c2ccc(OCCOCCOCCn3cc(CCCOc4ccc5c(=O)cc(-c6ccccc6)oc5c4)nn3)cc2)oc2ccccc12 | 203
COC(=O)c1cccc(COc2c(-c3ccc(OCCOCCOCCn4cc(CCCOc5ccc(-c6cc(=O)c7ccc(F)cc7o6)cc5)nn4)cc3)oc3ccccc3c2=O)c1 | 2.3
Cc1ccc2oc(-c3ccc(OCCCCc4cn(CCOCCOCCOc5ccc(-c6cc(=O)c7ccccc7o6)cc5)nn4)cc3)cc(=O)c2c1 | 160
O=c1cc(-c2ccccc2)oc2cc(OCCCc3cn(CCOCCOCCOc4ccc(-c5oc6ccccc6c(=O)c5OCc5ccccc5)cc4)nn3)ccc12 | 78
COC(=O)c1cccc(COc2c(-c3ccc(OCCOCCOCCn4cc(CCCOc5ccc6c(=O)cc(-c7ccccc7)oc6c5)nn4)cc3)oc3ccccc3c2=O)c1 | 7
O=c1cc(-c2ccc(OCCCc3cn(CCOCCOCCOc4ccc5c(=O)cc(-c6ccccc6)oc5c4)nn3)cc2)oc2cc(F)ccc12 | 27
Cc1ccc2oc(-c3ccc(OCCCCc4cn(CCOCCOCCOc5ccc6c(=O)cc(-c7ccccc7)oc6c5)nn4)cc3)cc(=O)c2c1 | 151
O=c1cc(-c2ccc(OCCOCCOCCn3cc(COCCOc4ccc5c(=O)cc(-c6ccccc6)oc5c4)nn3)cc2)oc2ccccc12 | 340
COC(=O)c1cccc(COc2c(-c3ccc(OCCOCCn4cc(COCCOc5ccc6c(=O)cc(-c7ccccc7)oc6c5)nn4)cc3)oc3ccccc3c2=O)c1 | 18
O=c1cc(-c2ccc(OCCOCCn3cc(CN(Cc4ccccc4)Cc4cn(CCOCCOc5ccc(-c6cc(=O)c7ccccc7o6)cc5)nn4)nn3)cc2)oc2ccccc12 | 205
O=c1cc(-c2ccccc2)oc2cc(OCCN(Cc3ccccc3)Cc3cn(CCOCCOCCOc4ccc(-c5oc6ccccc6c(=O)c5OCc5ccccc5)cc4)nn3)ccc12 | 69
O=c1cc(-c2ccccc2)oc2cc(OCCn3cc(CN(Cc4ccccc4)Cc4cn(CCOc5ccc6c(=O)cc(-c7ccccc7)oc6c5)nn4)nn3)ccc12 | 485
OCCOCCn1cc(CN(Cc2ccccc2)Cc2cn(CCOCCO)nn2)nn1 | > 1000
O=c1cc(-c2ccccc2)oc2cc(OCCN(Cc3ccccc3)Cc3cn(CCOc4ccc5c(=O)cc(-c6ccccc6)oc5c4)nn3)ccc12 | 280
Cc1ccc2oc(-c3ccc(OCCOCCOCCn4cc(CN(Cc5ccccc5)Cc5cn(CCOCCOCCOc6ccc(-c7cc(=O)c8cc(C)ccc8o7)cc6)nn5)nn4)cc3)cc(=O)c2c1 | 46

test: Inhibition of BCRP (unknown origin) transfected in HEK293/R2 cells assessed as reversal of topotecan resistance after 5 days by MTS/PMS assay

SMILES | EC50 [nM]
O=c1cc(-c2ccc(OCCOCCn3cc(CCCOc4ccc(-c5cc(=O)c6ccc(F)cc6o5)cc4)nn3)cc2)oc2ccccc12 | 7.2
COC(=O)c1cccc(COc2c(-c3ccc(OCCOCCn4cc(CCCCOc5ccc6c(=O)cc(-c7ccccc7)oc6c5)nn4)cc3)oc3ccccc3c2=O)c1 | 5.2
COC(=O)c1cccc(COc2c(-c3ccc(OCCOCCOCCn4cc(-c5ccc(-c6cn(CCOCCOCCOc7ccc(-c8oc9ccccc9c(=O)c8OCc8cccc(C(=O)OC)c8)cc7)nn6)cc5)nn4)cc3)oc3ccccc3c2=O)c1 | 2.4
O=c1cc(-c2ccc(OCCOCCOCCn3cc(CCCOc4ccc5c(=O)cc(-c6ccccc6)oc5c4)nn3)cc2)oc2ccccc12 | 52
COC(=O)c1cccc(COc2c(-c3ccc(OCCOCCOCCn4cc(CCCOc5ccc(-c6cc(=O)c7ccc(F)cc7o6)cc5)nn4)cc3)oc3ccccc3c2=O)c1 | 2
Cc1ccc2oc(-c3ccc(OCCCCc4cn(CCOCCOCCOc5ccc(-c6cc(=O)c7ccccc7o6)cc5)nn4)cc3)cc(=O)c2c1 | 285
O=c1cc(-c2ccccc2)oc2cc(OCCCc3cn(CCOCCOCCOc4ccc(-c5oc6ccccc6c(=O)c5OCc5ccccc5)cc4)nn3)ccc12 | 60
COC(=O)c1cccc(COc2c(-c3ccc(OCCOCCOCCn4cc(CCCOc5ccc6c(=O)cc(-c7ccccc7)oc6c5)nn4)cc3)oc3ccccc3c2=O)c1 | 3.5
O=c1cc(-c2ccc(OCCCc3cn(CCOCCOCCOc4ccc5c(=O)cc(-c6ccccc6)oc5c4)nn3)cc2)oc2cc(F)ccc12 | 28
O=c1cc(-c2ccc(OCCOCCOCCn3cc(COCCOc4ccc5c(=O)cc(-c6ccccc6)oc5c4)nn3)cc2)oc2ccccc12 | 303
O=c1cc(-c2ccccc2)oc2cc(OCCN(Cc3ccccc3)Cc3cn(CCOCCOCCOc4ccc(-c5oc6ccccc6c(=O)c5OCc5ccccc5)cc4)nn3)ccc12 | 156
O=c1cc(-c2ccccc2)oc2cc(OCCn3cc(CN(Cc4ccccc4)Cc4cn(CCOc5ccc6c(=O)cc(-c7ccccc7)oc6c5)nn4)nn3)ccc12 | 243
OCCOCCn1cc(CN(Cc2ccccc2)Cc2cn(CCOCCO)nn2)nn1 | > 1000
O=c1cc(-c2ccccc2)oc2cc(OCCN(Cc3ccccc3)Cc3cn(CCOc4ccc5c(=O)cc(-c6ccccc6)oc5c4)nn3)ccc12 | 190

test: Inhibition of P-gp (unknown origin) expressed in human LCC6MDR cells assessed as reversal of paclitaxel resistance after 5 days by MTS/PMS assay

SMILES | EC50 [nM]
O=c1cc(-c2ccc(OCCCc3cn(CCOCCOc4ccc(-c5cc(=O)c6ccccc6o5)cc4)nn3)cc2)oc2ccccc12 | 201
O=c1cc(-c2ccc(OCCOCCn3cc(CCCOc4ccc(-c5cc(=O)c6ccc(F)cc6o5)cc4)nn3)cc2)oc2ccccc12 | 155
COC(=O)c1cccc(COc2c(-c3ccc(OCCOCCn4cc(CCCCOc5ccc6c(=O)cc(-c7ccccc7)oc6c5)nn4)cc3)oc3ccccc3c2=O)c1 | 325
COC(=O)c1cccc(COc2c(-c3ccc(OCCOCCOCCn4cc(COCCOc5ccc6c(=O)cc(-c7ccccc7)oc6c5)nn4)cc3)oc3ccccc3c2=O)c1 | 313
O=c1cc(-c2ccccc2)oc2cc(OCCOCc3cn(CCOCCOc4ccc(-c5oc6ccccc6c(=O)c5OCc5ccccc5)cc4)nn3)ccc12 | 345
COC(=O)c1cccc(COc2c(-c3ccc(OCCOCCOCCn4cc(-c5ccc(-c6cn(CCOCCOCCOc7ccc(-c8oc9ccccc9c(=O)c8OCc8cccc(C(=O)OC)c8)cc7)nn6)cc5)nn4)cc3)oc3ccccc3c2=O)c1 | > 1000
O=c1cc(-c2ccc(OCCOCCOCCn3cc(CCCOc4ccc5c(=O)cc(-c6ccccc6)oc5c4)nn3)cc2)oc2ccccc12 | 384
COC(=O)c1cccc(COc2c(-c3ccc(OCCOCCOCCn4cc(CCCOc5ccc(-c6cc(=O)c7ccc(F)cc7o6)cc5)nn4)cc3)oc3ccccc3c2=O)c1 | 246
Cc1ccc2oc(-c3ccc(OCCCCc4cn(CCOCCOCCOc5ccc(-c6cc(=O)c7ccccc7o6)cc5)nn4)cc3)cc(=O)c2c1 | > 1000
O=c1cc(-c2ccccc2)oc2cc(OCCCc3cn(CCOCCOCCOc4ccc(-c5oc6ccccc6c(=O)c5OCc5ccccc5)cc4)nn3)ccc12 | 259
COC(=O)c1cccc(COc2c(-c3ccc(OCCOCCOCCn4cc(CCCOc5ccc6c(=O)cc(-c7ccccc7)oc6c5)nn4)cc3)oc3ccccc3c2=O)c1 | 414
O=c1cc(-c2ccc(OCCCc3cn(CCOCCOCCOc4ccc5c(=O)cc(-c6ccccc6)oc5c4)nn3)cc2)oc2cc(F)ccc12 | 89
COC(=O)c1cccc(COc2c(-c3ccc(OCCOCCOCCn4cc(CCCCOc5ccc6c(=O)cc(-c7ccccc7)oc6c5)nn4)cc3)oc3ccccc3c2=O)c1 | 285
O=c1cc(-c2ccc(OCCOCCOCCn3cc(COCCOc4ccc5c(=O)cc(-c6ccccc6)oc5c4)nn3)cc2)oc2ccccc12 | 963
COC(=O)c1cccc(COc2c(-c3ccc(OCCOCCn4cc(COCCOc5ccc6c(=O)cc(-c7ccccc7)oc6c5)nn4)cc3)oc3ccccc3c2=O)c1 | 437
O=c1cc(-c2ccc(OCCOCCn3cc(CN(Cc4ccccc4)Cc4cn(CCOCCOc5ccc(-c6cc(=O)c7ccccc7o6)cc5)nn4)nn3)cc2)oc2ccccc12 | 670
O=c1cc(-c2ccccc2)oc2cc(OCCN(Cc3ccccc3)Cc3cn(CCOCCOCCOc4ccc(-c5oc6ccccc6c(=O)c5OCc5ccccc5)cc4)nn3)ccc12 | 983
O=c1cc(-c2ccccc2)oc2cc(OCCn3cc(CN(Cc4ccccc4)Cc4cn(CCOc5ccc6c(=O)cc(-c7ccccc7)oc6c5)nn4)nn3)ccc12 | > 1000
OCCOCCn1cc(CN(Cc2ccccc2)Cc2cn(CCOCCO)nn2)nn1 | > 1000
O=c1cc(-c2ccccc2)oc2cc(OCCN(Cc3ccccc3)Cc3cn(CCOc4ccc5c(=O)cc(-c6ccccc6)oc5c4)nn3)ccc12 | 897
Cc1ccc2oc(-c3ccc(OCCOCCOCCn4cc(CN(Cc5ccccc5)Cc5cn(CCOCCOCCOc6ccc(-c7cc(=O)c8cc(C)ccc8o7)cc6)nn5)nn4)cc3)cc(=O)c2c1 | 763
COC(=O)c1cccc(COc2c(-c3ccc(OCCOCCOCCn4cc(CCCCOc5ccc(-c6cc(=O)c7cc(C)ccc7o6)cc5)nn4)cc3)oc3ccccc3c2=O)c1 | 420
COC(=O)c1cccc(COc2c(-c3ccc(OCCOCCn4cc(CCCCOc5ccc(-c6cc(=O)c7cc(C)ccc7o6)cc5)nn4)cc3)oc3ccccc3c2=O)c1 | 430
